29 compounds from patent US6780994B2, “Phthalimido arylpiperazines useful in the treatment of benign prostatic hyperplasia” (Ortho-McNeil Pharmaceutical, Inc., priority 1998, dated 2004) can be followed below.

The target in one assay is T1, α1d-AR (Homo sapiens, UniProt P25100).
T1 construct: expressed in transfected cells; host or cells: COS cells, pcDNA3 vector, transient DEAE-dextran transfection
T1 sequence (P25100 1-572): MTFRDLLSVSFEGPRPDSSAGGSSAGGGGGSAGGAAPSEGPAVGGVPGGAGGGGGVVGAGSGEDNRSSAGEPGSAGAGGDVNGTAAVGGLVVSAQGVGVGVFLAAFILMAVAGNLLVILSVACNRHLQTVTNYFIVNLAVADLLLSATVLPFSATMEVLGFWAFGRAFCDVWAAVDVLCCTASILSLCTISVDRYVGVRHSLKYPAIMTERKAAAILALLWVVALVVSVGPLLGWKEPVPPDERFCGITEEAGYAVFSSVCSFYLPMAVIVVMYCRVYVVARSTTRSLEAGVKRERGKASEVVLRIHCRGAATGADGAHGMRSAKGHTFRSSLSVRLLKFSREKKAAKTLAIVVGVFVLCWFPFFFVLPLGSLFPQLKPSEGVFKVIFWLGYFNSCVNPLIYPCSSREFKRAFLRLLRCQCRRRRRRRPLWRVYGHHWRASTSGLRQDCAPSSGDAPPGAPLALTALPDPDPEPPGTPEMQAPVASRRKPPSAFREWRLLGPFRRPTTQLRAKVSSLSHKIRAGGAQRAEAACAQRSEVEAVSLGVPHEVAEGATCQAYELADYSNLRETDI
As to the kind of experiment: radioligand ([125I]-HEAT) receptor binding assay, COS cell membranes expressing cloned receptor. As to conditions: [125I]-HEAT 50 pM, 1 hour room temperature. The source says: (§1) The first assay tested the ability of compounds of Formula I to bind to membrane bound receptors α1a-AR, α1b-AR and α1d-AR.
(§2) The DNA sequences of the three cloned human α1-AR subtypes have been published. […] We used published DNA sequence information to design primers for use in RT-PCR amplification of each subtype to obtain cloned cDNAs. Human poly A+ RNA was obtained from commercially available sources and included hippocampus and prostate samples, sources which have been cited in the literature. For the primary screen a radioligand binding assay was used which employed membrane preparations from cells expressing the individual cloned receptor cDNAs. Radiolabeled ligands with binding activity on all three subtypes (non-selective) are commercially available ([125I]-HEAT, [3H]-prazosin). Each α1 receptor subtype was cloned from poly A+ RNA by the standard method of reverse transcription-polymerase chain reaction (RT-PCR). The following sources of polyA+ RNA were used for the cloning of the α1 receptor subtypes: α1a-AR, human hippocampus and prostate, α1b-AR, human hippocampus, α1d-AR, human hippocampus. The resulting cDNAs were cloned into the pcDNA3 mammalian expression vector (Invitrogen Corp., San Diego Calif.). Each DNA was sequenced for verification and to detect any possible mutations introduced during the amplification process. Any deviation in sequence from the published consensus for each receptor subtype was corrected by site-directed mutagenesis.
(§3) The three α1-AR subtypes (a, b, d) were transfected into COS cells using a standard DEAE-dextran procedure with a chloroquine shock. In this procedure, each tissue culture dish (100 mm) was inoculated with 3.5×10^6 cells and transfected with 10 μg of DNA. Approximately 72 hours post-transfection, the cells were harvested and COS membranes were prepared. Transfected COS cells from 25 plates (100 mm) were scraped and suspended in 15 mL of TE buffer (50 mM Tris-HCl, 5 mM EDTA, pH 7.4). The suspension was disrupted with a homogenizer. It was then centrifuged at 1000× g for 10 minutes at 4° C. The supernatant was centrifuged at 34,500× g for 20 minutes at 4° C. The pellet was resuspended in 5 mL TNE buffer (50 mM Tris-HCl, 5 mM EDTA, 150 mM NaCl, pH 7.4). The resulting membrane preparation was aliquoted and stored at −70° C. The protein concentration was determined following membrane solubilization with TritonX-100.
(§4) The ability of each compound to bind to each of the α1-AR subtypes was assessed in a receptor binding assay. [125I]-HEAT, a non-selective α1-AR ligand, was used as the radiolabeled ligand. Each well of a 96-well plate received: 140 μL TNE, […] [125I]-HEAT diluted in TNE (50,000 cpm; final concentration 50 pM), 10 μL test compound diluted in DMSO (final concentration 1 pM-10 μM), […] COS cell membrane preparation expressing one of the three α1-AR subtypes (0.05-0.2 mg membrane protein). The plate was incubated for 1 hour at room temperature and the reaction mixtures were filtered through a Packard GF/C Unifilter filter plate. The filter plate was dried for 1 hour in a vacuum oven. Scintillation fluid ([…]) was added to each well, and the filter plate was counted in a Packard Topcount scintillation counter. Data was analyzed using GraphPad Prism software.
(§5) Tables A through D list the IC50 values expressed in nanomolar concentration for select compounds of the invention in all receptor subtypes.

The next assay has as its target T2, α1b-AR (Homo sapiens, UniProt P35368).
T2 construct: expressed in transfected cells; host or cells: COS cells, pcDNA3 vector, transient DEAE-dextran transfection
T2 sequence (P35368 1-520): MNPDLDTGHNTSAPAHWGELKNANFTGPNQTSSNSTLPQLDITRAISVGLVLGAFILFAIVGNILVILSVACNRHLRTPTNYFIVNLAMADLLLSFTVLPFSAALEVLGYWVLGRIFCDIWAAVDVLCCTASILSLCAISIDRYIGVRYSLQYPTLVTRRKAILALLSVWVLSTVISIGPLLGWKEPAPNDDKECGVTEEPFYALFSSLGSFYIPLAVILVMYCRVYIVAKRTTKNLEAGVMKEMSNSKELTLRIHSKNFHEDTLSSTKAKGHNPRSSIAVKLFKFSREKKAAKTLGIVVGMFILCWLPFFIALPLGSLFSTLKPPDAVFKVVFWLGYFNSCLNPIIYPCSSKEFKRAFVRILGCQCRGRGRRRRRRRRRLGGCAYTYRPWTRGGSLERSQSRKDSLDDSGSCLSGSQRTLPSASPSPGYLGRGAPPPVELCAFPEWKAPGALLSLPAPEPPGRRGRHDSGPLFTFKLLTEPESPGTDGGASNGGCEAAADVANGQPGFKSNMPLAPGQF
The assay is described as above. As to conditions: [125I]-HEAT 50 pM, 1 hour room temperature.
Source text: as §1, §2, §3, §4, §5

Regarding `CC(C)Oc1ccccc1N1CCN(CC(O)CNC(=O)c2ccc3c(c2)C(=O)N(c2ccc(C(C)(C)C)cc2)C3=O)CC1` (stereo not shown) [Compound 41], the IC50 is 75 nM on α1d-AR and greater than 2000 nM at α1b-AR.

Consider `CC(C)Oc1ccccc1N1CCN(CCCNC(=O)c2ccc3c(c2)C(=O)N(c2ccc(N(C)C)cc2)C3=O)CC1` [Compound 44], for which the values for the IC50 on α1d-AR and on α1b-AR were 15 nM and 465 nM, respectively.

Turning to `CC(C)Oc1ccccc1N1CCN(CC(O)CNC(=O)c2ccc3c(c2)C(=O)N(c2ccc(O)cc2)C3=O)CC1` (stereo not shown) [Compound 58], the results for the IC50 at α1d-AR and on α1b-AR were 28 nM and greater than 2000 nM, respectively.

As for `Cc1ccc(N2C(=O)c3ccc(C(=O)NCC(O)CN4CCN(c5ccccc5OC(C)C)CC4)cc3C2=O)cc1` (stereo not shown) [Compound 52], the values for the IC50 on α1d-AR and at α1b-AR were 62 nM and greater than 2000 nM, respectively.

`CC(C)Oc1ccccc1N1CCN(CC(O)CNC(=O)c2ccc3c(c2)C(=O)N(c2ccc(N(C)C)cc2)C3=O)CC1` (stereo not shown) [Compound 28]: the values for the IC50 on α1d-AR and at α1b-AR were 44 nM and greater than 2000 nM, respectively.

With `CC(C)Oc1ccccc1N1CCN(CC(O)CNC(=O)c2ccc3c(c2)C(=O)N(c2cc(F)cc(F)c2)C3=O)CC1` (stereo not shown) [Compound 29], the values for the IC50 on α1d-AR and on α1b-AR were 38 nM and 886 nM, respectively.

With `COc1ccc(N2C(=O)c3ccc(C(=O)NCCCN4CCN(c5ccccc5OC(C)C)CC4)cc3C2=O)cc1` [Compound 45], the IC50 came to 16 nM at α1d-AR and 361 nM on α1b-AR.

On to `COc1ccccc1N1CCN(CC(O)CNC(=O)c2ccc3c(c2)C(=O)N(c2cccc(F)c2)C3=O)CC1` (stereo not shown) [Compound 43], for which the IC50 is 540 nM on α1d-AR and greater than 2000 nM on α1b-AR.

Regarding `COc1ccccc1N1C(=O)c2ccc(C(=O)NCC(O)CN3CCN(c4ccccc4OC(C)C)CC3)cc2C1=O` (stereo not shown) [Compound 26], the IC50 at α1d-AR turned out to be 74 nM; at α1b-AR it was 1640 nM.

With `CC(C)Oc1ccccc1N1CCN(CCCNC(=O)c2ccc3c(c2)C(=O)N(c2ccc(O)cc2)C3=O)CC1` [Compound 47], the IC50 at α1d-AR turned out to be 13 nM; at α1b-AR, 255 nM.

As for `Cc1ccc(N2C(=O)c3ccc(C(=O)NCCCN4CCN(c5ccccc5OC(C)C)CC4)cc3C2=O)cc1` [Compound 46], the results for the IC50 on α1d-AR and at α1b-AR were 37 nM and greater than 2000 nM, respectively.

With `CC(C)Oc1ccccc1N1CCN(C[C@@H](O)CNC(=O)c2ccc3c(c2)C(=O)N(c2ccc(N(C)C)cc2)C3=O)CC1` [Compound 21, (S)-2-[4-(dimethylamino)phenyl]-2,3-dihydro-N-[2-hydroxy-3-[4-[2-(1-methylethoxy)phenyl]-1-piperazinyl]propyl]-1,3-dioxo-1H-isoindole-5-carboxamide], the IC50 on α1d-AR is 52 nM; at α1b-AR it was greater than 2000 nM.

For `CC(C)Oc1ccccc1N1CCN(CC(O)CNC(=O)c2ccc3c(c2)C(=O)N(c2ccc(O)cc2)C3=O)CC1` (single isomer, unassigned) [Compound 35], the IC50 on α1d-AR was 137 nM; at α1b-AR, greater than 2000 nM.

As for `CC(C)Oc1ccccc1N1CCN(CCCNC(=O)c2ccc3c(c2)C(=O)N(c2cccc(F)c2)C3=O)CC1` [Compound 6], the IC50 on α1d-AR stood at 22 nM; at α1b-AR it was 482 nM.

`CC(C)Oc1ccccc1N1CCN(C[C@H](O)CNC(=O)c2ccc3c(c2)C(=O)N(c2cccc(F)c2)C3=O)CC1` [Compound 27]: the IC50 was 63 nM on α1d-AR and greater than 2000 nM at α1b-AR.

Turning to `CCOc1ccccc1N1CCN(CC(O)CNC(=O)c2ccc3c(c2)C(=O)N(c2cccc(F)c2)C3=O)CC1` (stereo not shown) [Compound 42], the IC50 at α1d-AR is 136 nM; at α1b-AR it was greater than 2000 nM.

As to `CC(C)Oc1ccccc1N1CCN(CC(O)CNC(=O)c2ccc3c(c2)C(=O)N(c2cccc(C(F)(F)F)c2)C3=O)CC1` (stereo not shown) [Compound 57], the IC50 was 89 nM at α1d-AR and greater than 2000 nM on α1b-AR.

On to `CC(C)Oc1ccccc1N1CCN(CC(O)CNC(=O)c2ccc3c(c2)C(=O)N(c2ccc(F)cc2)C3=O)CC1` (stereo not shown) [Compound 50], for which the IC50 was 111 nM on α1d-AR and greater than 2000 nM at α1b-AR.

In the case of `CC(C)Oc1ccccc1N1CCN(CC(O)CNC(=O)c2ccc3c(c2)C(=O)N(c2cccc(F)c2)C3=O)CC1` (racemic) [Compound 4], the IC50 came to 76 nM on α1d-AR and 1830 nM on α1b-AR.

For the compound `CC(C)Oc1ccccc1N1CCN(CC(O)CNC(=O)c2ccc3c(c2)C(=O)N(c2ccc(Cl)c(Cl)c2)C3=O)CC1` (stereo not shown) [Compound 56], the IC50 at α1d-AR amounted to 40 nM; at α1b-AR, 1230 nM.

Take `COC(CNC(=O)c1ccc2c(c1)C(=O)N(c1cccc(F)c1)C2=O)CN1CCN(c2ccccc2OC(C)C)CC1` (stereo not shown) [Compound 14]: the IC50 was 407 nM on α1d-AR and greater than 2000 nM on α1b-AR.

Take `CC(C)Oc1ccccc1N1CCN(CC(O)CNC(=O)c2ccc3c(c2)C(=O)N(c2cccnc2)C3=O)CC1` (stereo not shown) [Compound 11]: the results for the IC50 on α1d-AR and on α1b-AR were 31 nM and greater than 2000 nM, respectively.

As for `CC(=O)c1ccc(N2C(=O)c3ccc(C(=O)NCC(O)CN4CCN(c5ccccc5OC(C)C)CC4)cc3C2=O)cc1` (stereo not shown) [Compound 48], the values for the IC50 on α1d-AR and on α1b-AR were 60 nM and greater than 2000 nM, respectively.

With `CC(C)Oc1ccccc1N1CCN(C[C@@H](O)CNC(=O)c2ccc3c(c2)C(=O)N(c2cccc(F)c2)C3=O)CC1` [Compound 9], the IC50 at α1d-AR is 190 nM; on α1b-AR, greater than 2000 nM.

Regarding `CC(C)Oc1ccccc1N1CCN(CC(O)CNC(=O)c2ccc3c(c2)C(=O)N(c2cccc(Cl)c2)C3=O)CC1` (stereo not shown) [Compound 54], the IC50 at α1d-AR was 37 nM; on α1b-AR, 669 nM.

In the case of `CC(C)Oc1ccccc1N1CCN(CC(O)CNC(=O)c2ccc3c(c2)C(=O)N(c2ccc([N+](=O)[O-])cc2)C3=O)CC1` (stereo not shown) [Compound 30], the IC50 was 38 nM at α1d-AR and greater than 2000 nM at α1b-AR.

Regarding `CC(C)Oc1ccccc1N1CCN(CC(O)CNC(=O)c2ccc3c(c2)C(=O)N(c2ccc(Cl)cc2)C3=O)CC1` (stereo not shown) [Compound 53], the IC50 at α1d-AR was found to be 55 nM; at α1b-AR, 606 nM.

Consider `CC(C)Oc1ccccc1N1CCN(CC(O)CNC(=O)c2ccc3c(c2)C(=O)N(c2ccccc2)C3=O)CC1` (stereo not shown) [Compound 51], for which the IC50 was 65 nM at α1d-AR and greater than 2000 nM on α1b-AR.

Consider `COc1ccc(N2C(=O)c3ccc(C(=O)NCC(O)CN4CCN(c5ccccc5OC(C)C)CC4)cc3C2=O)cc1OC` (stereo not shown) [Compound 38], for which the values for the half-inhibitory concentration (IC50) on α1d-AR and at α1b-AR were 175 nM and greater than 2000 nM, respectively.
